Tests used:
S. pombe strain Eg328 = experiment: NAM and propidium iodide staining of fission yeast; format: cell-based, Schizosaccharomyces pombe
Experimental: S. pombe strain Eg328, h^90 smt-0 ura4-D18, (ATCC 90720; Styrkarsdottir U et al. Curr. Genet. 23: 184-186, 1993) was grown in a rotary shaker at 29° C. to a density of 1×10^7 cells/ml in EMM minimal medium (Moreno et al., Methods Enzym. 194: 795-823, 1991) supplemented with 10 mM of L-uridine (Sigma, U3750). Cells were collected by centrifuging, washed with sterile water and stained with 10 μg/ml NAM (N-(9-acridinyl)-maleimide, Sigma, #01665) and 10 μg/ml propidium iodide (Applichem, #A2261.9010) prior to mounting on a microscope slide. Olympus IX50 was used for microscopy, and images were captured using a Lumenera CCD camera and in-house developed software. Propidium iodide and NAM fluorescence were detected using, respectively, U-MWG2 and U-MNUA2 filter cubes (Olympus).

bone marrow cells = experiment: NAM/PI staining to determine viability of bone marrow derived cells; format: cell-based, murine; settings: 93% viable, 10 μL NAM (100 μg/mL DMSO) in 90 μL cells
Experimental: The bone marrow cells were harvested aseptically in the laminar flow hood. Briefly, bilateral tibia and femur were aseptically removed, freed of surrounding soft tissue, and placed in a petri dish with 10 mL 70% ethanol. After 2 minutes they were transferred to ice cold PBS. The bone marrow cavity was then flushed with 5 ml cold PBS using a 5-ml syringe with a 27-gauge needle attached, and the cells were collected from each bone. The cells were centrifuged at 300 g for 10 min, the supernatant was discarded, and cells were washed twice. After the second wash the cell pellet was resuspended in RPMI 1640 (Invitrogen, #61870) supplemented with 10% heat-inactivated fetal bovine serum (Invitrogen, #10108-165), 100 U/mL penicillin and 100 μg/mL streptomycin (Invitrogen, #15140-122). 90 μL bone marrow cells (cell density 1.7×10^6, 93% viable determined using the NC-100 NucleoCounter system following the manufacturer's (ChemoMetec A/S) protocol) were added 10 μL NAM (N-(9-acridinyl)maleimide, Sigma, #01665, CAS no. 49759-20-8) dissolved in DMSO (100 μg NAM pr. mL DMSO) and mixed by pipetting. Cells were loaded into a NucleoCassette, containing the DNA stain propidium iodide (PI). […] PI and NAM fluorescence were detected using, respectively, U-MWG2 (green long pass: 510-550 nm) and U-MNUA2 (UV band pass, 330-385 nm) filter cubes (Olympus).

[1] = system: primary murine splenocytes; experiment: NAM/PI staining to determine viability of primary murine splenocytes; format: cell-based, C57BL/6 mouse; settings: 90% viable, 10 μL NAM (100 μg/mL DMSO) in 90 μL cells
Experimental: The spleen from a C57BL/6 mouse was placed in ice-cold PBS and gently ground using the end of a sterile syringe. The suspension was centrifuged at 300 g for 10 minutes; the pellet was resuspended in 1 mL 0.83% NH4Cl to lyse erythrocytes and incubated for 3 minutes on ice. The cells were then added 14 mL PBS and centrifuged at 300 g for 10 minutes. The splenocytes were resuspended in RPMI (Invitrogen, #61870) supplemented with 10% heat-inactivated fetal bovine serum (Invitrogen, #10108-165), 100 U/mL penicillin and 100 μg/mL streptomycin (Invitrogen, #15140-122). The cell clumps were allowed to sediment and were removed by pipetting, and the resulting single cell suspension was used. 90 μL splenocytes (cell density 1.7×10^6, 90% viable determined using the NC-100 NucleoCounter system following the manufacturer's (ChemoMetec A/S) protocol) were added 10 μL NAM (N-(9-acridinyl)maleimide, Sigma, #01665, CAS no. 49759-20-8) dissolved in DMSO (100 μg NAM pr. mL DMSO) and mixed by pipetting. Cells were loaded into a NucleoCassette, containing the DNA stain propidium iodide (PI). The cells were investigated using an Olympus IX50 fluorescence microscope, and images were captured using a Lumenera CCD camera and in-house developed software. PI and NAM fluorescence were detected using, respectively, U-MWG2 (green long pass: 510-550 nm) and U-MNUA2 (UV band pass, 330-385 nm) filter cubes (Olympus).

[2] = Akasaka et al. 1990; cited from earlier work
HEK293 cells = experiment: NAM/PI staining to determine viability of outgrown HEK293 cells (fluorescence microscopy); format: cell-based, human; settings: for staining of Triton X-100 treated cells: HEK293 cells treated with 0.25% Triton X-100, then 10 μg/mL NAM, PI from NucleoCassette
Experimental: HEK293 cells were grown at 37° C. in a humidified air atmosphere with 5% CO2 in DMEM (Invitrogen, #31966) supplemented with 10% heat-inactivated fetal bovine serum (Invitrogen, #10108-165). Cells were harvested with 0.5 mL of trypsin (Invitrogen, #25300) and neutralized with 5 mL medium (DMEM+10% FCS) two days after they had reached full confluency. These outgrown HEK293 cells (cell density 1.6×10^6, 78% viable determined using the NC-100 NucleoCounter system following the manufacturer's (ChemoMetec) protocol) were stained with 10 μg/mL NAM (Sigma, #01665). Another cell sample were treated with 0.25% Triton X-100 (Sigma, #T9284) and hereafter added 10 μg/mL NAM. After staining, each cell sample was loaded into a NucleoCassette, containing the DNA stain propidium iodide (PI). The cells were investigated using an Olympus IX50 fluorescent microscope, and images were captured using a Lumenera CCD camera and in-house developed software. PI and NAM fluorescence were detected using, respectively, U-MWG2 (green long pass: 510-550 nm) and U-MNUA2 (UV band pass, 330-385 nm) filter cubes (Olympus).

Drosophila S2 cells = experiment: NAM/PI staining to determine viability of Drosophila S2 cells (fluorescence microscopy); format: cell-based, Drosophila melanogaster; settings: 99% viable, diluted 10 times in PBS, 10 μg/mL NAM
Experimental: (Drosophila melanogaster Schneider line-2 (S2) cells were originally derived from late embryonic stage Drosophila embryos.) Drosophila S2 cells were grown at 28° C. without shaking in Schneider's Drosophila medium (Invitrogen, #21720) supplemented with 10% heat-inactivated fetal bovine serum (Invitrogen, #10108-165). S2 cells (cell density 1.7×10^7, 99% viable determined using the YC-100 NucleoCounter system with diploid settings following the manufacturer's (ChemoMetec) protocol) were diluted 10 times in PBS and stained with 10 μg/mL NAM (Sigma, #01665). Cells were loaded into a NucleoCassette, containing the DNA stain propidium iodide (PI). The cells were investigated using an Olympus IX50 fluorescent microscope, and images were captured using a Lumenera CCD camera and in-house developed software. PI and NAM fluorescence were detected using, respectively, U-MWG2 (green long pass: 510-550 nm) and U-MNUA2 (UV band pass, 330-385 nm) filter cubes (Olympus).

Jurkat (JM) cells [3] = experiment: NAM/PI staining to determine viability of proliferating Jurkat cells (fluorescence microscopy); format: cell-based; settings: 99% viable, 10 μL NAM (100 μg/mL DMSO) in 90 μL cells, UV band pass filter
Experimental: (§1) Jurkat (JM) cells were grown at 37° C. in a humidified air atmosphere with 5% CO2 in RPMI (Invitrogen, #61870) supplemented with 10% heat-inactivated fetal bovine serum (Invitrogen, #10108-165). 90 μL proliferating Jurkat cells (cell density 1.2×10^6, 99% viable determined using the NC-100 NucleoCounter system following the manufacturer's (ChemoMetec A/S) protocol) were added 10 μL NAM (N-(9-acridinyl)maleimide, Sigma, #01665, CAS no. 49759-20-8) dissolved in DMSO (100 μg NAM pr. mL DMSO) and mixed by pipetting. Cells were loaded into a NucleoCassette, containing the DNA stain propidium iodide (PI). The cells were investigated using an Olympus IX50 fluorescent microscope, and images were captured using a Lumenera CCD camera and in-house developed software. PI and NAM fluorescence were detected using, respectively, U-MWG2 (green long pass: 510-550 nm) and U-MNUA2 (UV band pass, 330-385 nm) filter cubes (Olympus).

U2OS cells = experiment: Intracellular localization of fluorescent NAM in GFP / H2B-GFP expressing cells; format: cell-based; settings: 10 μg/ml NAM
Excerpt: (§2) MCF-7 (ATTC HTB-22) and U2OS (ATTC HTB-96) cells were cultivated in RPMI (Invitrogen, #61870)+10% FCS (Invitrogen, #10108-165). Cells were transfected with, respectively, pEGFP-C1 (Clontech) and pBOS-H2B-GFP (Pharmingen, BD Biosciences) using Lipofectamine 2000 (Invitrogen, #11668-027) according to manufacturer's instructions. Stable cells lines expressing GFP (green fluorescent protein) or H2B-GFP (GFP N-terminally fused to histone H2B) were cultivated in, respectively, T25 flasks and in chamber slides (Nunc) to 75% confluency. Cells from T25 flasks were harvested with 0.5 ml of trypsin (Invitrogen, #25300), neutralized with 5 ml of medium (RPMI+10% FCS), stained with 10 μg/ml NAM (N-(9-acridinyl), maleimide, Sigma, #01665) prior to mounting on a microscope slide. Cells grown on chamber slides were directly stained with 10 μg/ml NAM (N-(9-acridinyl)-maleimide). Olympus IX50 was used for microscopy, and images were captured using a Lumenera CCD camera and in-house developed software. GFP and NAM fluorescence were detected using, respectively, U-MNIB3 and U-MNUA2 filter cubes (Olympus).
(§3) Cells expression GFP or H2B-GFP were used for determining the intracellular localization of fluorescent NAM.

MCF-7 cells = experiment: as above; format: cell-based; settings: 10 μg/ml NAM
Excerpt: as §2, §3

[4] = Excitation spectra of NAM with -SH reagents (spectrofluorophotometer); format: physicochemical
Experimental: The excitation spectra of NAM, glutathione GSH, GSSG and DTT and combinations thereof were obtained using a spectrofluorophotometer (RF-5301 Fluorescence Spectrophotometer, Shimadzu). 10 μL NAM dissolved in DMSO (100 μg/mL) were added to 3 mL distilled water (resulting concentration of NAM; 0.33 μg/mL) in a quartz cuvette and the excitation spectrum was recorded. Likewise were the spectra of NAM (0.33 μg/mL) together with GSH (167 μg/mL), NAM (0.33 μg/mL) together with GSSG (167 μg/mL), NAM together with DTT (167 μg/mL), GSH (167 μg/mL) alone, GSSG (167 μg/mL) alone and DTT (167 μg/mL) alone recorded.

Jurkat (JM) cells [5] = experiment: CPI/PI staining as marker of cell viability in proliferating Jurkat cells; format: cell-based; settings: 98% viable, 10 μL CPI (100 μg/mL DMSO) in 90 μL cells
Experimental: as §1, with “1.1×10^6, 98%” for “1.2×10^6, 99%”, “(ChemoMetec)” for “(ChemoMetec A/S)”, “CPI (7-diethylamino-3-((4′-(iodoacetyl)amino)phenyl)-4-methylcoumarin, Sigma 78264” for “NAM (N-(9-acridinyl)maleimide, Sigma, #01665,”, “76877-34-4)” for “49759-20-8)”, “CPI” for “NAM”

SMILES	intracellular localization of NAM in yeast cells (S. pombe strain Eg328; 10 μg/ml NAM)	staining of living and dead yeast cells by NAM (S. pombe strain Eg328; 10 μg/ml NAM and 10 μg/ml propidium iodide)	staining of cells by NAM versus PI (bone marrow cells)	staining of cells by NAM versus PI [1]	fluorescence of NAM upon reaction with sulfite [2]	staining of Triton X-100 treated cells (HEK293 cells)	staining of cells by NAM versus PI (HEK293 cells; outgrown HEK293 cells, 78% viable, 10 μg/mL NAM)	staining of cells by NAM versus PI (Drosophila S2 cells)	staining of cells by NAM versus PI (Jurkat (JM) cells [3])	intracellular localization of fluorescent NAM (U2OS cells; GFP-expressing cell lines)	intracellular localization of fluorescent NAM (U2OS cells; H2B-GFP-expressing cells)	intracellular localization of fluorescent NAM (MCF-7 cells; GFP-expressing cell lines)	intracellular localization of fluorescent NAM (MCF-7 cells; H2B-GFP-expressing cells)	fluorescence of NAM alone ([4]; NAM 0.33 μg/mL in distilled water, no thiol)	fluorescence on mixing NAM with GSH ([4]; NAM 0.33 μg/mL, GSH 167 μg/mL)	fluorescence on mixing NAM with DTT ([4]; NAM with DTT 167 μg/mL)	staining of cells by CPI versus PI (Jurkat (JM) cells [5])
O=C1C=CC(=O)N1c1c2ccccc2nc2ccccc12 [NAM, N-(9-acridinyl)maleimide]	localizes to both the nucleus and cytosol	NAM stains both living and dead yeast cells	nearly all the primary bone marrow cells were stained by NAM; again only exception were PI positive cells	nearly all the primary spleen cells were stained by NAM; only exception were PI positive cells	fluoresces strongly	NAM negative	NAM and PI were found to complementary stain the outgrown HEK293 cells	NAM and PI were found to complementary stain S2 cells	nearly all cells in the proliferating Jurkat cell culture were stained by NAM; only exception were PI positive cells	found in both the nucleus and cytosol	found outside as well as inside the nucleus	found in both the nucleus and cytosol	found outside as well as inside the nucleus	only exhibited very weak fluorescence	strong synergistic effect with respect to fluorescence	strong synergistic effect with respect to fluorescence	–
CCN(CC)c1ccc2c(C)c(-c3ccc(NC(=O)CI)cc3)c(=O)oc2c1 [CPI, 7-diethylamino-3-((4′-(iodoacetyl)amino)phenyl)-4-methylcoumarin]	–	–	–	–	–	–	–	–	–	–	–	–	–	–	–	–	nearly all cells were stained by CPI
CC[N+](C)(CC)CCC[n+]1c(-c2ccccc2)c2cc(N)ccc2c2ccc(N)cc21.[I-].[I-] [PI, propidium iodide]	–	–	–	–	–	PI positive	–	–	–	–	–	–	–	–	–	–	–
